What was measured:
[1] = test system: aggregation-prone soluble oligomeric protein (A11 antibody) in CL4176; assay: A11 immunolocalization of soluble oligomeric protein, CL4176; assay type: in vivo, Caenorhabditis elegans; conditions: CL4176, 50 μM ThT
Method: For fluorescent microscopy, TJ356 zIs356 IV [daf-16::daf-16-gfp+rol-6] or CF2189 Is001(skn-1::gfp+rol-6) were paralyzed with 1 mM levamisole mounted on 1% agarose pads and imaged using Olympus BX51 (60× objective) and HCImage software (Hamamatsu). For immunofluorescence, N2, […], CB1157 unc-54(e1157) or CL4176 dvIs27 [myo-3::Aβ(3 to 42)-let 3′UTR(pAF29); pRF4 (rol-6(su1006))] worms were treated for 24-36 h with or without 50 μM ThT at 25° C. After this period the worms were collected, rinsed, and fixed in 4% paraformaldehyde overnight. […] Paramyosin and perlecans were detected with primary monoclonal antibodies 5-23 and MH3 (developed by Henry Epstein and Robert H. Waterston and obtained from the Developmental Studies Hybridoma Bank developed under the auspices of the NICHD and maintained by The University of Iowa, Department of Biology, Iowa City, Iowa 52242) and AlexaFluor 633 goat anti-mouse (Molecular Probes) as secondary antibody. Soluble oligomers and Aβ peptide were detected with anti polyclonal All (Invitrogen) and 6E10 monoclonal (Covance) primary antibodies, respectively, with AlexaFluor 568 goat anti-rabbit and AlexaFluor 488 goat anti-mouse (Molecular Probes) as secondary antibodies. Images were processed and quantified by using Image Analyst MK II (Novato, Calif.).

[2] = test system: HE250 [unc-52(e669su250)II]; assay: RNAi knockdown of proteostasis factors with paralysis scoring; assay type: in vivo, Caenorhabditis elegans; conditions: HE250, 50 μM ThT
Method: RNAi bacterial strains expressing double-stranded RNA that inactivates specified genes were cultured and utilized as previously described. (Timmons, L., Court, D. L. & Fire, A. Ingestion of bacterially expressed dsRNAs can produce specific and potent genetic interference in Caenorhabditis elegans. Gene 263, 103-112 (2001).) Briefly, eggs isolated from synchronous populations of unc-52(e669su250) cultures were placed on fresh RNAi plates and allowed to grow at 15° C.; 3 days later, L4 molt animals were transferred to new plates seeded with the same bacteria in presence or absence of ThT and switched to 25° C. The cultures were scored for paralysis after 48 h of treatment as described above. In all cases, 1 mM isopropyl-beta-D-thiogalactopyranoside (IPTG) was used for induction of double stranded RNA. In all the cases the identity of the clones was confirmed by sequencing.

`Cc1ccc2c(c1)sc(-c1ccc(N(C)C)cc1)[n+]2C.[Cl-]` [ThT, 4-(3,6-dimethyl-1,3-benzothiazol-3-ium-2-yl)-N,N-dimethylaniline chloride] was tested, and the A11-positive oligomeric material [1] was “significantly decreased”, the “ThT protection from paralysis with RNAi of proteasome and autophagy genes” value ([2]; RNAi aip-1, atg-9, vps-34) was “required for the beneficial effects of ThT” and the “ThT protection from paralysis with RNAi of acute stress genes” value ([2]; RNAi hsp-16.2, hsp-16.41) was “decreased”. The “ThT suppression of paralysis with daf-16 RNAi” value ([2]; daf-16 (RNAi)) was “potentiated”, the “ThT effect on paralysis with lmp-2 RNAi” value ([2]; lmp-2(RNAi)) was “significantly improved the ThT effect on paralysis” and the “ThT effect on paralysis with skn-1 RNAi” value ([2]; skn-1 (RNAi)) was “required for ThT effect on the paralysis phenotype”.
